# Assay results: PubChem BioAssay AID381 (SGCOxCompounds, 2006)
# Molecular target: Aldo-keto reductase family 1 member C4 (Homo sapiens) (UniProt P17516)
# Test: AKR1C4 binders by thermal shift, biophysical, DSF, SYPRO orange, with or without NADPH (AID 381)
# Details: recombinant AKR1C4, DSF thermal shift, at 10 µM, buffer 10 mM HEPES, NaCl 150 mM, pH 7.5, protein 2 µM, hits give high values
# Aldo-keto reductase family 1 member C4 (Homo sapiens), sequence (P17516 whole entry, looked up): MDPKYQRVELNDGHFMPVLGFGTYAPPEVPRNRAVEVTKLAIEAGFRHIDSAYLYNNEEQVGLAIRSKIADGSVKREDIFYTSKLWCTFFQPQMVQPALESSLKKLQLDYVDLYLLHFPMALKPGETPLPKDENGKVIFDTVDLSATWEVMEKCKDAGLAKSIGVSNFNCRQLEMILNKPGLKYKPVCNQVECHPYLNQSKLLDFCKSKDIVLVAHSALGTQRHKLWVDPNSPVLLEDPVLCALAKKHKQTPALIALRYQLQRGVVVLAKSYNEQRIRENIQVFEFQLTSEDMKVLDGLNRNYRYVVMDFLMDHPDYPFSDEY
row,SMILES,Tm shift [Celsius]
1,O=c1cc(-c2ccccc2)oc2cc(O)c(O)c(O)c12,3.5

# Same assay, conditions: recombinant AKR1C4, DSF thermal shift, at 10 µM, buffer 10 mM HEPES, pH 7.5, NaCl 150 mM, NADPH 20 µM, protein 2 µM, hits give high values
row,SMILES,Tm shift [Celsius]
1,C[C@]12CC[C@H]3C(=CCc4cc(O)ccc43)[C@@H]1CCC2=O,4.5
2,CC(=O)[C@H]1CC[C@H]2[C@@H]3CCC4=CC(=O)CC[C@]4(C)[C@H]3CC[C@]12C,4.5
3,Oc1cc(Cl)ccc1Oc1ccc(Cl)cc1Cl,2.3
4,C[C@]12CC[C@H]3[C@@H](CCC4=CC(=O)CC[C@@]43C)[C@@H]1CC[C@@H]2O,5.3

# Same assay, conditions: recombinant AKR1C4, DSF thermal shift, at 10 µM, buffer 10 mM HEPES, pH 7.5, NaCl 150 mM, protein 2 µM, hits give high values
row,SMILES,Tm shift [Celsius]
1,O=C1C(=O)C(c2ccc(O)cc2O)Oc2cc(O)cc(O)c21 (configuration not stated),2.1
2,CC1(C)[C@@H](O)CC[C@]2(C)[C@H]3C(=O)C=C4[C@@H]5C[C@@](C)(C(=O)O)CC[C@]5(C)CC[C@@]4(C)[C@]3(C)CC[C@@H]12,5
3,CC1CC(C)(C)NC(=S)N1CCCC(=O)N1CCN(C(c2ccccc2)c2ccc(Cl)cc2)CC1 (configuration not stated),2.4
4,O=c1cc(-c2ccc(O)cc2)oc2cc(O)cc(O)c12,2.2
5,O=c1cc(-c2ccccc2)oc2cc(O)cc(O)c12,2.3
6,CC1(C)[C@@H](OC(=O)CCC(=O)O)CC[C@]2(C)[C@H]3C(=O)C=C4[C@@H]5C[C@@](C)(C(=O)O)CC[C@]5(C)CC[C@@]4(C)[C@]3(C)CC[C@@H]12,7.3
7,CC1(C)[C@@H](O)CC[C@]2(C)[C@H]3C(=O)C=C4[C@H]5C[C@@](C)(C(=O)O)CC[C@]5(C)CC[C@@]4(C)[C@]3(C)CC[C@@H]12,5.2
